Source: patent EP0116208A1, “Mitomycin analogues” (KYOWA HAKKO KOGYO CO., LTD., priority 1982, dated 1984)

Assays:
[1] = Effect upon the number of peripheral leukocytes (WBC 4000); format: in vivo; settings: mouse, Toxicity against bone marrow, WBC 4000 = dose giving 4000 leukocytes/mm3, Sarcoma 180 bearing mice, read-out: WBC 4000/ ED50
Method: (5) Effect upon the number of peripheral leukocytes:
5 x 10^6 cells of Sarcoma 180 solid tumour were implanted under the skin of each mouse at the right armpit. 24 hours after this, venous blood (0.02 ml) was collected from the eyepit of the mouse and suspended in Cell-Kit Seven solution (10 ml; commercially available from Toa Iryo Denshi K.K., Japan).
To the suspension, a drop of saponin solution was added to dissolve the red cells and the number of leukocytes were counted using a microcell counter. The number of leukocytes and the corresponding dose were respectively plotted on the ordinate in arithmetic scale and on the abscissa in logarithmic scale on graph paper to investigate the relationship between dosage and the number of peripherical leukocytes. A dose capable of giving 4000 leukocytes/mm3 was defined as WBC 4000, which corresponded to about 1/2 the number of peripherical leukocytes in normal mice.
The greater the ratio of WBC 4000 to ED50 the smaller the decrease in the number of peripherical leukocytes viz. the lower the toxicity against bone marrow in the area of the effective dose.

Sarcoma 180 solid tumour = experiment: Effect on Sarcoma 180 solid tumour (ED50, chemotherapeutic index); format: in vivo, ddy mice; settings: Anti-tumour activity; ratio of LD50 to ED50; ED50 = dose giving T/C 0.5 of Sarcoma 180 solid tumour volume, intraperitoneal injection
Source text: (1) Effect on Sarcoma 180 solid tumour:
5 x 10^6 cells of Sarcoma 180 solid tumour were innoculated into the abdominal cavities of groups of ddy mice, each group consisting of 5 mice. 7..days after this, on each occasion, the tumour cells were collected from the ascites of the mouse. The cells were washed with a sterilized physiological sodium chloride solution and used to prepare a cell suspension containing 5 x 10^7 cells per ml of a sterilized physiological solution of sodium chloride, of which 0.1 ml was injected under the skin of the right armpit of a ddy male mouse (body weight 20 ±2 g). A test compound was dissolved in a physiological solution of sodium chloride or a similar solution containing Tween 80 (a surfactant commercially available from Atlas Chemical Industries, Inc., U.S.A.). 24 hours after the implantation of the tumours cells, the test compound (0.1 to 0.2 ml) was injected into the test mice intraperitoneally. In order to determine the antitumour activity of the test compound, 7 days after the implantation of the tumour cells, on each occasion, the major axis (a) and minor axis (b) of the tumour were measured to calculate the volume of the tumour ['a' x ^Ib'/2]. The anti-tumour effect was evaluated by the ratio of the tumour volume in the test animals (T) to the corresponding volume of the control (untreated) animals (C).
(2) Determination of ED50.
A dose capable of reducing the volume of a Sarcoma 180 solid tumour to 50% of the corresponding volume of the untreated group on average was defined as the ED50. T/C ratios and the doses were respectively plotted on the ordinate in arithmetic scale and abscissa in logarithmic scale on graph paper, from which the relationship between the doses and the T/C ratios was calculated as a straight line by the least square method. From the straight tropic line thus-obtained, the dose corresponding to a T/C of 0.5 was determined.

Acute toxicity (LD50) = experiment: Acute toxicity (LD50); parameters: species or system mice; settings: mouse, in vivo; death ratio observed for 14 days; Behrens-Korber's method
Source text: (3) Acute toxicity (LD50):
On each occasion, the test compound was given to the test animal.

Compound	selectivity ratio [1]	C.I. (Sarcoma 180 solid tumour)	LD50 at 336 h (Acute toxicity (LD50))
CC1=C(NCCSSCCNC2=C(C)C(=O)C3=C(C2=O)C(COC(N)=O)C2(O)C4C(CN32)N4C)C(=O)C2=C(C1=O)N1CC3C(N3C)C1(O)C2COC(N)=O (stereo not drawn) [a, 7-N,7'-N'-dithiodiethylenedimitomycin D]	2.29	>2.99	> 60 mg/kg
CC1=C(NCCSSCCN)C(=O)C2=C(C1=O)N1CC3C(N3C)C1(O)C2COC(N)=O (stereo not drawn) [c, 7-N-[2-(2-aminoethyl)dithioethyl]mitomycin D]	1.87	3.11	74.3 mg/kg
CCSSCCNC1=C(C)C(=O)C2=C(C1=O)C(COC(N)=O)C1(OC)C3NC3CN21 (stereo not drawn) [g, 7-N-(2-ethyldithioethyl)mitomycin C]	3.76	1.64	5.4 mg/kg
COC12C(COC(N)=O)C3=C(C(=O)C(C)=C(NCCSSCCO)C3=O)N1CC1NC12 (stereo not drawn) [i, 7-N-[2-(2-hydroxyethyl)dithioethyl]mitomycin C]	2.13	≤2.12	≤ 11.2 mg/kg
COC12C(COC(N)=O)C3=C(C(=O)C(C)=C(NC4CSSC4)C3=O)N1CC1NC12 (stereo not drawn) [j, 7-N-(1,2-dithiolan-4-yl)mitomycin C]	–	–	5.25 mg/kg
CC1=C(NC2CSSC2)C(=O)C2=C(C1=O)N1CC3C(N3C)C1(O)C2COC(N)=O (stereo not drawn) [l, 7-N-(1,2-dithiolan-4-yl)mitomycin D]	–	–	35.6 mg/kg
COC12C(COC(N)=O)C3=C(C(=O)C(C)=C(NCCSSCC(O)CO)C3=O)N1CC1NC12 (stereo not drawn) [o, 7-N-[2-(2,3-dihydroxypropyl)dithioethyl]mitomycin C]	–	–	22.5 mg/kg
COC12C(COC(N)=O)C3=C(C(=O)C(C)=C(NCCSSCCN)C3=O)N1CC1NC12 (stereo not drawn) [r, 7-N-[2-(2-aminoethyl)dithioethyl)mitomycin C]	1.25	0.73	13.5 mg/kg
COC12C(COC(N)=O)C3=C(C(=O)C(C)=C(NCCSSCCNC4=C(C)C(=O)C5=C(C4=O)C(COC(N)=O)C4(OC)C6NC6CN54)C3=O)N1CC1NC12 (stereo not drawn) [s, 7-N-, 7'-N'-dithiodiethylenedimitomycin C]	2.63	2.98	18.8 mg/kg
COC12C(COC(N)=O)C3=C(C(=O)C(C)=C(NCCSSCCNC4=C(C)C(=O)C5=C(C4=O)C(COC(N)=O)C4(OC)C6C(CN54)N6C)C3=O)N1CC1C2N1C (stereo not drawn) [t, 7-N, 7'-N'-dithiodiethylenediporfiromycin]	1.34	2.15	33.8 mg/kg
